Source: ChEMBL document CHEMBL4002612, “Study of antileishmanial activity of 2-aminobenzoyl amino acid hydrazides and their quinazoline derivatives” (Bioorg Med Chem Lett, 2017)

Experiments:
Leishmania aethiopica [1] = experiment: Antileishmanial activity against promastigote stage of Leishmania aethiopica assessed as parasite growth inhibition after 24 hrs by Alamar blue assay; format: functional
Mus musculus [2] = experiment: Acute toxicity in mouse assessed as mortality at 25 to 250 mg/kg/day administered as single dose via oral gavage measured after 3 days; format: organism-based; settings: in vivo, 72 h
Mus musculus [3] = experiment: Acute toxicity in mouse assessed as change in spleen texture at 100 mg/kg, ip by microscopic method; format: organism-based; settings: in vivo
Mus musculus [4] = experiment: Acute toxicity in mouse assessed as change in kidney texture at 250 mg/kg/day administered as single dose via oral gavage by microscopic method; format: organism-based; settings: in vivo
Mus musculus [5] = experiment: Acute toxicity in mouse assessed as change in spleen texture at 250 mg/kg/day administered as single dose via oral gavage by microscopic method; format: organism-based; settings: in vivo
Leishmania aethiopica [6] = experiment: Potency index, ratio of mitefosine IC50 to test compound IC50 for promastigote stage of Leishmania aethiopica; format: functional
Mus musculus [7] = experiment: Acute toxicity in mouse assessed as change in kidney texture at 100 mg/kg, ip by microscopic method; format: organism-based; settings: in vivo
Mus musculus [8] = experiment: Acute toxicity in mouse assessed as mortality up to 100 mg/kg, ip after 7 days; format: organism-based; settings: in vivo, 168 h
Mus musculus [9] = experiment: Acute toxicity in mouse assessed as change in liver texture at 250 mg/kg/day administered as single dose via oral gavage by microscopic method; format: organism-based; settings: in vivo
Mus musculus [10] = experiment: Acute toxicity in mouse assessed as change in liver texture at 100 mg/kg, ip by microscopic method; format: organism-based; settings: in vivo
Mus musculus [11] = experiment: Acute toxicity in mouse assessed as change in body weight at 25 to 250 mg/kg/day administered as single dose via oral gavage measured after 3 days; format: organism-based; settings: in vivo, 72 h

COC(=O)CNC(=O)c1ccccc1N
IC50 (Leishmania aethiopica [1]): 29.2 µM

COC(=O)CCNC(=O)c1ccccc1N
IC50 (Leishmania aethiopica [1]): 26.4 µM

COC(=O)CCCNC(=O)c1ccccc1N
IC50 (Leishmania aethiopica [1]): 17.3 µM

COC(=O)CCCCCNC(=O)c1ccccc1N
IC50 (Leishmania aethiopica [1]): 21.3 µM

NNC(=O)CCCCCNC(=O)c1ccccc1N
Activity (Mus musculus [2]): Non-Toxic | Activity (Mus musculus [3]): Non-Toxic | Activity (Mus musculus [4]): Non-Toxic | Activity (Mus musculus [5]): Non-Toxic | IC50 (Leishmania aethiopica [1]): 0.051 µM | Ratio IC50 (Leishmania aethiopica [6]): 154 | Activity (Mus musculus [7]): Non-Toxic | Activity (Mus musculus [8]): Non-Toxic | Activity (Mus musculus [9]): Non-Toxic | Activity (Mus musculus [10]): Non-Toxic | Activity (Mus musculus [11]): Non-Toxic

O=C(CNC(=O)c1ccccc1/N=C/c1ccc(Cl)cc1)N/N=C\c1ccc(Cl)cc1
Activity (Mus musculus [2]): Non-Toxic | Activity (Mus musculus [3]): Non-Toxic | Activity (Mus musculus [4]): Non-Toxic | Activity (Mus musculus [5]): Non-Toxic | IC50 (Leishmania aethiopica [1]): 0.052 µM | Activity (Mus musculus [7]): Non-Toxic | Activity (Mus musculus [8]): Non-Toxic | Activity (Mus musculus [9]): Non-Toxic | Activity (Mus musculus [10]): Non-Toxic | Activity (Mus musculus [11]): Non-Toxic

O=C(CCCN1C(=O)c2ccccc2NC1c1ccco1)N/N=C/c1ccco1 (centres undefined)
IC50 (Leishmania aethiopica [1]): 10.4 µM

O=C(CCCCCN1C(=O)c2ccccc2NC1c1ccc2c(c1)OCO2)N/N=C/c1ccc2c(c1)OCO2 (centres undefined)
IC50 (Leishmania aethiopica [1]): 9.33 µM

O=C(CN1C(=O)c2ccccc2NC1c1ccc2c(c1)OCO2)N/N=C/c1ccc2c(c1)OCO2 (centres undefined)
IC50 (Leishmania aethiopica [1]): 12 µM

O=C(N/N=C/c1ccc(Cl)cc1)C(Cc1ccccc1)N1C(=O)c2ccccc2NC1c1ccc(Cl)cc1 (centres undefined)
IC50 (Leishmania aethiopica [1]): 10.1 µM

CC(C(=O)N/N=C/c1ccco1)N1C(=O)c2ccccc2NC1c1ccco1 (centres undefined)
IC50 (Leishmania aethiopica [1]): 10.7 µM

COC(=O)C(Cc1ccccc1)NC(=O)c1ccccc1N (centres undefined)
IC50 (Leishmania aethiopica [1]): 15.6 µM

NNC(=O)CNC(=O)c1ccccc1N
Activity (Mus musculus [2]): Non-Toxic | Activity (Mus musculus [3]): Non-Toxic | Activity (Mus musculus [4]): Non-Toxic | Activity (Mus musculus [5]): Non-Toxic | IC50 (Leishmania aethiopica [1]): 0.127 µM | Activity (Mus musculus [7]): Non-Toxic | Activity (Mus musculus [8]): Non-Toxic | Activity (Mus musculus [9]): Non-Toxic | Activity (Mus musculus [10]): Non-Toxic | Activity (Mus musculus [11]): Non-Toxic

NNC(=O)C(Cc1ccccc1)NC(=O)c1ccccc1N (centres undefined)
IC50 (Leishmania aethiopica [1]): 2.9 µM

CC(NC(=O)c1ccccc1N)C(=O)NN (centres undefined)
Activity (Mus musculus [2]): Non-Toxic | Activity (Mus musculus [3]): Non-Toxic | Activity (Mus musculus [4]): Non-Toxic | Activity (Mus musculus [5]): Non-Toxic | IC50 (Leishmania aethiopica [1]): 0.185 µM | Activity (Mus musculus [7]): Non-Toxic | Activity (Mus musculus [8]): Non-Toxic | Activity (Mus musculus [9]): Non-Toxic | Activity (Mus musculus [10]): Non-Toxic | Activity (Mus musculus [11]): Non-Toxic

O=C(CCNC(=O)c1ccccc1/N=C/c1ccc(Cl)cc1)N/N=C/c1ccc(Cl)cc1
IC50 (Leishmania aethiopica [1]): 4.34 µM

COC(=O)C(C)NC(=O)c1ccccc1N (centres undefined)
IC50 (Leishmania aethiopica [1]): 23 µM

O=C(CCCCCN1C(=O)c2ccccc2NC1c1ccco1)N/N=C/c1ccco1 (centres undefined)
IC50 (Leishmania aethiopica [1]): 11.1 µM

O=C(CCN1C(=O)c2ccccc2NC1c1ccccc1)N/N=C/c1ccccc1 (centres undefined)
IC50 (Leishmania aethiopica [1]): 12.6 µM

COc1ccc(/C=N/NC(=O)CN2C(=O)c3ccccc3NC2c2ccc(OC)cc2)cc1 (centres undefined)
IC50 (Leishmania aethiopica [1]): 9.07 µM

O=C(N/N=C/c1ccco1)C(Cc1ccccc1)N1C(=O)c2ccccc2NC1c1ccco1 (centres undefined)
IC50 (Leishmania aethiopica [1]): 9.05 µM

C[C@@H]1[C@H](O)[C@@H](C)/C=C/C=C/C=C/C=C/C=C/C=C/C=C/[C@H](O[C@@H]2O[C@H](C)[C@@H](O)[C@H](N)[C@@H]2O)C[C@@H]2O[C@](O)(C[C@@H](O)C[C@@H](O)[C@H](O)CC[C@@H](O)C[C@@H](O)CC(=O)O[C@H]1C)C[C@H](O)[C@H]2C(=O)O.C[C@H](CCC(=O)O)[C@H]1CC[C@H]2[C@@H]3CC[C@@H]4C[C@H](O)CC[C@]4(C)[C@H]3C[C@H](O)[C@]12C
IC50 (Leishmania aethiopica [1]): 0.035 µM
